Tests used:
Test in all cases: relative viability (nuclei count vs DMSO), 5 days (fraction); higher = more cells survive
[1] = tested on: PC-14
Procedure, shortened: (§1)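 Relative viability equals treated-well nuclei counts divided by vehicle-well nuclei counts. Counts came from 4× images of lung cancer cell lines grown in 1536-well plates for 5 days after pin-tool dosing on the day after seeding. Dosing used one drug alone or a fixed anchor-drug dose plus five library-drug doses (not always all listed) in √10 steps, and values are medians of duplicate plates.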

[2] = tested on: HCC-366
Procedure, shortened: as §1

[3] = tested on: NCI-H2228
Procedure, shortened: as §1

[4] = tested on: NCI-H2347
Procedure, shortened: as §1

[5] = tested on: SW 1573
Procedure, shortened: as §1

[6] = tested on: NCI-H596
Procedure, shortened: as §1

[7] = tested on: EBC-1
Procedure, shortened: as §1

[8] = tested on: SK-MES-1
Procedure, shortened: as §1

[9] = tested on: LC-2-ad
Procedure, shortened: as §1

[10] = tested on: HOP-62
Procedure, shortened: as §1

[11] = tested on: NCI-H2085
Procedure, shortened: as §1

[12] = tested on: ChaGo-K-1
Procedure, shortened: as §1

[13] = tested on: LK-2
Procedure, shortened: as §1

[14] = tested on: RERF-LC-KJ
Procedure, shortened: as §1

[15] = tested on: NCI-H2405
Procedure, shortened: as §1

[16] = tested on: HCC-78
Procedure, shortened: as §1

[17] = tested on: EMC-BAC-2
Procedure, shortened: as §1

[18] = tested on: NCI-H2009
Procedure, shortened: as §1

[19] = tested on: NCI-H1993
Procedure, shortened: as §1

[20] = tested on: NCI-H1734
Procedure, shortened: as §1

[21] = tested on: NCI-H1355
Procedure, shortened: as §1

[22] = tested on: CAL-12T
Procedure, shortened: as §1

[23] = tested on: Calu-6
Procedure, shortened: as §1

[24] = tested on: NCI-H3122
Procedure, shortened: as §1

CCCCCCCCCCCC1=C(O)C(=O)C=C(O)C1=O [Embelin] + CC1(C)CCC(c2ccc(Cl)cc2)=C(CN2CCN(c3ccc(C(=O)NS(=O)(=O)c4ccc(N[C@H](CCN5CCOCC5)CSc5ccccc5)c(S(=O)(=O)C(F)(F)F)c4)cc3)CC2)C1 [Navitoclax] (partner 0.5 µM) showed a relative viability ([1]; first compound 0.08 µM) of 0.968, a relative viability ([1]; first compound 0.8 µM) of 1.05 and a relative viability ([1]; first compound 2.53 µM) of 0.997. For the same molecule, the relative viability ([1]; first compound 8 µM) was 1.06, the relative viability ([2]; first compound 0.08 µM) was 0.953 and the relative viability ([2]; first compound 0.8 µM) was 1.16. The relative viability ([2]; first compound 2.53 µM) was 1.13, the relative viability ([2]; first compound 8 µM) was 1.11 and the relative viability ([3]; first compound 0.08 µM) was 0.793. The relative viability ([3]; first compound 0.8 µM) was 0.955, the relative viability ([3]; first compound 2.53 µM) was 1.28 and the relative viability ([3]; first compound 8 µM) was 0.604. For the same molecule, the relative viability ([4]; first compound 0.08 µM) was 0.746, the relative viability ([4]; first compound 0.8 µM) was 0.95 and the relative viability ([4]; first compound 2.53 µM) was 1.01. The relative viability ([4]; first compound 8 µM) was 0.811, the relative viability ([5]; first compound 0.08 µM) was 0.973 and the relative viability ([5]; first compound 0.8 µM) was 0.976. For the same molecule, the relative viability ([5]; first compound 2.53 µM) was 1.02, the relative viability ([5]; first compound 8 µM) was 1.02 and the relative viability ([6]; first compound 0.08 µM) was 0.934. For the same molecule, the relative viability ([6]; first compound 0.8 µM) was 1.06, the relative viability ([6]; first compound 2.53 µM) was 1.12 and the relative viability ([6]; first compound 8 µM) was 0.908. It also gave a relative viability ([7]; first compound 0.08 µM) of 0.439, a relative viability ([7]; first compound 0.8 µM) of 0.426 and a relative viability ([7]; first compound 2.53 µM) of 0.425. It also gave a relative viability ([7]; first compound 8 µM) of 0.404, a relative viability ([8]; first compound 0.08 µM) of 1.23 and a relative viability ([8]; first compound 0.8 µM) of 1.32. It also gave a relative viability ([8]; first compound 2.53 µM) of 1.25, a relative viability ([8]; first compound 8 µM) of 1.43 and a relative viability ([9]; first compound 0.08 µM) of 0.406. It also gave a relative viability ([9]; first compound 0.8 µM) of 0.625, a relative viability ([9]; first compound 2.53 µM) of 0.451 and a relative viability ([9]; first compound 8 µM) of 0.51. For the same molecule, the relative viability ([10]; first compound 0.08 µM) was 0.882, the relative viability ([10]; first compound 0.8 µM) was 1.16 and the relative viability ([10]; first compound 2.53 µM) was 1.09. It also gave a relative viability ([10]; first compound 8 µM) of 1.22, a relative viability ([11]; first compound 0.08 µM) of 1.09 and a relative viability ([11]; first compound 0.8 µM) of 1.31. The relative viability ([11]; first compound 2.53 µM) was 1.2, the relative viability ([11]; first compound 8 µM) was 1 and the relative viability ([12]; first compound 0.08 µM) was 1.17. The relative viability ([12]; first compound 0.8 µM) was 1.54, the relative viability ([12]; first compound 2.53 µM) was 0.956 and the relative viability ([12]; first compound 8 µM) was 0.777. For the same molecule, the relative viability ([13]; first compound 0.08 µM) was 0.904, the relative viability ([13]; first compound 0.8 µM) was 1.2 and the relative viability ([13]; first compound 2.53 µM) was 1.26. For the same molecule, the relative viability ([13]; first compound 8 µM) was 0.809, the relative viability ([14]; first compound 0.08 µM) was 0.963 and the relative viability ([14]; first compound 0.8 µM) was 1.14. The relative viability ([14]; first compound 2.53 µM) was 0.808, the relative viability ([14]; first compound 8 µM) was 0.821 and the relative viability ([15]; first compound 0.08 µM) was 0.986. It also gave a relative viability ([15]; first compound 0.8 µM) of 1.41, a relative viability ([15]; first compound 2.53 µM) of 0.875 and a relative viability ([15]; first compound 8 µM) of 0.906. For the same molecule, the relative viability ([16]; first compound 0.08 µM) was 0.797, the relative viability ([16]; first compound 0.8 µM) was 0.931 and the relative viability ([16]; first compound 2.53 µM) was 0.863. The relative viability ([16]; first compound 8 µM) was 0.762, the relative viability ([17]; first compound 0.08 µM) was 1.17 and the relative viability ([17]; first compound 0.8 µM) was 1.17. For the same molecule, the relative viability ([17]; first compound 2.53 µM) was 1.33, the relative viability ([17]; first compound 8 µM) was 1.3 and the relative viability ([18]; first compound 0.08 µM) was 1.23. The relative viability ([18]; first compound 0.8 µM) was 1.24, the relative viability ([18]; first compound 2.53 µM) was 1.23 and the relative viability ([18]; first compound 8 µM) was 1.08. The relative viability ([19]; first compound 0.08 µM) was 0.958, the relative viability ([19]; first compound 0.8 µM) was 0.84 and the relative viability ([19]; first compound 2.53 µM) was 0.916. It also gave a relative viability ([19]; first compound 8 µM) of 0.893, a relative viability ([20]; first compound 0.08 µM) of 0.847 and a relative viability ([20]; first compound 0.8 µM) of 1.09. It also gave a relative viability ([20]; first compound 2.53 µM) of 1.23, a relative viability ([20]; first compound 8 µM) of 0.894 and a relative viability ([21]; first compound 0.08 µM) of 1.04. For the same molecule, the relative viability ([21]; first compound 0.8 µM) was 1.05, the relative viability ([21]; first compound 2.53 µM) was 1.06 and the relative viability ([21]; first compound 8 µM) was 0.884. The relative viability ([22]; first compound 0.08 µM) was 1.12, the relative viability ([22]; first compound 0.8 µM) was 1.41 and the relative viability ([22]; first compound 2.53 µM) was 1.23. The relative viability ([22]; first compound 8 µM) was 1.24, the relative viability ([23]; first compound 0.08 µM) was 0.837 and the relative viability ([23]; first compound 0.8 µM) was 1.01. The relative viability ([23]; first compound 2.53 µM) was 0.904, the relative viability ([23]; first compound 8 µM) was 0.831 and the relative viability ([24]; first compound 0.08 µM) was 1.05. For the same molecule, the relative viability ([24]; first compound 0.8 µM) was 1.01, the relative viability ([24]; first compound 2.53 µM) was 0.985 and the relative viability ([24]; first compound 8 µM) was 1.02.

— the supplement of paper PMC10307832
